Data reported in patent US7816345B2, “Phosphorus-containing prodrugs” (Metabasis Therapeutics, Inc., priority 1999, dated 2010).

How the values were obtained:
[1] = system: glucose production in isolated rat hepatocytes; assay: Inhibition of glucose production in rat hepatocytes (Example I); type: cell-based; settings: for IC50: lactate/pyruvate as substrates, 1 hour
Method: Methods: Isolated rat hepatocytes were prepared from fasted Sprague Dawley rats (250-300 g) as described in Example G. Hepatocytes (75 mg wet weight/ml) were incubated in 1 ml Krebs bicarbonate buffer containing 10 mM glucose, and 1 mg/ml BSA. Incubations were carried out in a 95% oxygen, 5% carbon dioxide atmosphere in closed, 50-ml Falcon tubes submerged in a rapidly shaking water bath (37° C.). After 10 minutes of equilibration, lactate and pyruvate were added to 10 mM and 1 mM concentrations, respectively. Addition of these gluconeogenic substrates was immediately followed by the addition of test compound to concentrations ranging from 1-100 μM. After 1 hour, an aliquot (0.25 ml) was removed, and transferred to an Eppendorf tube and centrifuged. The resulting supernatant (50 μl) was then assayed for glucose content using a Glucose Oxidase kit (Sigma Chemical Co.) as per the manufacturer's instructions.

[2] = system: mouse; assay: Byproduct toxicity testing in vivo (Example N)
Method: Plasma samples are subjected to a standard chemistry panel in which markers of liver function are evaluated.

[3] = Chemical stability in potassium phosphate buffers (Example A); type: physicochemical; settings: pH 7.0 potassium phosphate buffer, room temperature, 12-hour incubation
Method: Methods: Aliquots of a 10 μg/mL solution of Compound 1.3 in potassium phosphate buffers at pH 3 and 7 (room temperature) were sampled hourly for 12 hours. Samples were analyzed by reverse phase HPLC with use of a Beckman Ultrasphere C8 column (4.6×250 mm). The column was equilibrated and eluted with a gradient from 50 mM sodium phosphate pH 5.5 to 80% acetonitrile at a flow rate of 1.0 mL/min. Detection was at 254 nm. Under these conditions, Compound 1.3 was separated from 2-Amino-5-isobutyl-4-[2-(5-phosphonomonoamide)furanyl]thiazole, and from 2-Amino-5-isobutyl-4-(2-furanyl)thiazole (retention times=17, 15.8, and 15.6 min., respectively).

[4] = target: T1, human recombinant CYP3A4 (Homo sapiens, UniProt P08684); assay: Activation by recombinant CYP3A4 (Example F); type: in vitro ADME; settings: microsomes from baculovirus-infected insect cells co-expressing CYP3A4 and cytochrome p450 reductase
T1 construct: purchased Panvera Corp., Madison, Wis; host or cells: baculovirus-infected insect cells (microsomes)
Method: Activation of 1.3 was evaluated in reactions containing microsomes from baculovirus-infected insect cells co-expressing human recombinant CYP3A4 and cytochrome p450 reductase (Panvera Corp., Madison, Wis.).
Methods: Reaction mixture composition was similar to that described in Example D. Reactions were terminated by addition of methanol to a final concentration of 60% and products were analyzed by HPLC as described in Example A.

[5] = target: T2, FBPase (Homo sapiens, UniProt P09467); assay: FBPase inhibition in vitro; type: biochemical
T2 sequence (P09467 1-338): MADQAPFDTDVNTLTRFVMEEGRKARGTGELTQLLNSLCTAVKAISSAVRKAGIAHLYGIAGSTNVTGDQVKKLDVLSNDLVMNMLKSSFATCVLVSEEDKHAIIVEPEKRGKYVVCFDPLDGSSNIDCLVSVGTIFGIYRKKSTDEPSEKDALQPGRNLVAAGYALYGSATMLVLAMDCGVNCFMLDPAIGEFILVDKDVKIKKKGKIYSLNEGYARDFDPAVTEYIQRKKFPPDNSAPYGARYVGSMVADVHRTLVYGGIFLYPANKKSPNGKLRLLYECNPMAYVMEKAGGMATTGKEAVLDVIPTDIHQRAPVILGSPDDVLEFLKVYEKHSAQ

[6] = system: hepatocytes isolated from rats in which CYP3A4 expression was induced; assay: Activation in hepatocytes from dexamethasone-induced rats (Example J); type: cell-based, rat; settings: two hours of incubation
Method: Methods: Hepatocytes were prepared from fed, dexamethasone-induced Sprague-Dawley rats (300 g) according to the procedure of Berry and Friend (Berry, M. N., Friend, D. S. J. Cell Biol. 43, 506-520 (1969)) as modified by Groen (Groen, A. K. et al. Eur J. Biochem 122, 87-93 (1982)). Hepatocytes (62 mg wet weight/ml) were incubated in 2 ml Krebs bicarbonate buffer containing 10 mM glucose, and 1 mg/ml BSA. Incubations were carried out in a 95% oxygen, 5% carbon dioxide atmosphere in closed, 50-ml Falcon tubes submerged in a rapidly shaking water bath (37° C.). 3.1 and 3.2 were dissolved in methanol to yield 25 mM stock solutions, and then diluted into the cell suspension to yield a final concentration of 250 μM. Two hours following administration, aliquots of the cell suspension were removed and spun through a silicon/mineral oil layer into 10% perchloric acid. The cell extracts in the acid layers were neutralized by the addition of 0.3 volumes of 3M KOH/3M KHCO3, and the extract was then centrifuged, filtered (0.2 micron) and loaded onto an anion exchange HPLC column equilibrated with 70% A (10 mM ammonium phosphate pH 3.5, 6% ETOH) and 30% B (1 M ammonium phosphate pH 3.5, 6% ETOH). […] Detection was by uv absorbance at 254 nm. Peak areas were quantified by comparison of peak areas to authentic standards spiked into naive hepatocyte extracts. […]

[7] = system: rat hepatocytes; assay: Activation in isolated rat hepatocytes, intracellular triphosphate generation (Examples G, H); type: cell-based; settings: 250 μM, two hours of incubation
Method: Methods: Hepatocytes were prepared from fed, dexamethasone-induced Sprague-Dawley rats (300 g) according to the procedure of Berry and Friend (Berry, M. N., Friend, D. S. J. Cell Biol. 43, 506-520 (1969)) as modified by Groen (Groen, A. K. et al. Eur J. Biochem 122, 87-93 (1982)). Hepatocytes (62 mg wet weight/ml) were incubated in 2 ml Krebs bicarbonate buffer containing 10 mM glucose, and 1 mg/ml BSA. Incubations were carried out in a 95% oxygen, 5% carbon dioxide atmosphere in closed, 50-ml Falcon tubes submerged in a rapidly shaking water bath (37° C.). 3.1 and 3.2 were dissolved in methanol to yield 25 mM stock solutions, and then diluted into the cell suspension to yield a final concentration of 250 μM. Two hours following administration, aliquots of the cell suspension were removed and spun through a silicon/mineral oil layer into 10% perchloric acid. […] Detection was by uv absorbance at 254 nm. Peak areas were quantified by comparison of peak areas to authentic standards spiked into naive hepatocyte extracts.
Methods: 3.2 and acyclovir were evaluated in isolated rat hepatocytes at 250 μM as described in Example G.

[8] = system: P450 isozymes (CYP3A4, CYP1A2, CYP2C9) in human microsomal protein; settings: 0-100 μM inhibitor, 250 μM prodrug, 37° C.
Method: Prodrugs are evaluated for human microsome-catalyzed conversion to MPO2—(NHR^6−) in the absence and presence of specific inhibitors of three major P450 isozymes: ketoconazole (CYP3A4), furafylline (CYP1A2), and sulfaphenazole CYP2C9).
Methods: Reactions (0.5 ml @37° C.) consist of 0.2 M KH2PO4, 13 mM glucose-6-phosphate, 2.2 mM NADP+, 1 unit of glucose-6-phosphate dehydrogenase, 0-2.5 mg/ml human microsomal protein (In Vitro Technologies, Inc.), 250 μM prodrug, and 0-100 μM P450 isozyme inhibitor. Reactions are stopped by addition of methanol to a concentration of 60%, and filtered ([…] filter). MPO2—(NHR^6−) is quantified by standard reverse phase, ion-pairing, or ion exchange HPLC methods. Eluted peaks are quantified relative to authentic standards of known concentration.

[9] = system: rat embryos in culture; settings: cited from earlier work

T1 sequence (P08684 2-503): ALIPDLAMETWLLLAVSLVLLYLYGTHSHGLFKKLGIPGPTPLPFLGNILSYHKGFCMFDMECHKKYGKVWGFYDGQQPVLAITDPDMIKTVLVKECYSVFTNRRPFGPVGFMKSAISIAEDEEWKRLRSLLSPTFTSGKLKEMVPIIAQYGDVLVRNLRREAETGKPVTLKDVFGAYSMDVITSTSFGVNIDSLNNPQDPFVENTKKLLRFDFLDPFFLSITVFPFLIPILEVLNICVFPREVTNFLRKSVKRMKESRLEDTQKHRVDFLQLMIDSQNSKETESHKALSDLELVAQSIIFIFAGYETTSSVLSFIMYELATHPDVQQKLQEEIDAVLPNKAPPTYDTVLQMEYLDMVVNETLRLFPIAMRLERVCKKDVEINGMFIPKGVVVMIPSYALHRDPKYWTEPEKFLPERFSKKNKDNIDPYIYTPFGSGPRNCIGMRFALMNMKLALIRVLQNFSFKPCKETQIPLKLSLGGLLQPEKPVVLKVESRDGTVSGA

Compound: CC(C)Cc1sc(N)nc1-c1ccco1 [2-Amino-5-isobutyl-4-(2-furanyl)thiazole]
- IC50 ([1]; Rattus norvegicus, Hepatocyte): 2.5 µM

Compound: CC(=O)Nc1ccc(O)cc1 [Acetaminophen]
- reduction of hepatic glutathione ([2]; 50, 250 and 500 mg/kg): dose-dependent reduction
- depletion of hepatic glutathione ([2]; highest dose): > 80%

Compound: CC(C)Cc1sc(N)nc1-c1ccc(P2(=O)NCCC(c3ccccc3)O2)o1 (centres unmarked) [Compound 1.3, 2-Amino-5-isobutyl-4-{2-[5-(1-phenyl-1,3-propyl)phosphoramido]furanyl}thiazole]
- stability [3]: fully stable
- rate of generation of 2-Amino-5-isobutyl-4-[2-(5-phosphonomonoamide)furanyl]thiazole [4]: 4.2 nmoles/min./nmole CYP3A4
- IC50 [1]: 8.5 µM
- lower potency relative to 2-Amino-5-isobutyl-4-(2-furanyl)thiazole ([1]; ratio of IC50's for glucose production): ~3 fold
- inhibition of FBPase in vitro [5]: not an inhibitor

Compound: CSc1sc(N)nc1-c1ccc(P2(=O)OC(c3ccccc3)CCN2C)o1 (centres unmarked) [Compound 1.7, 2-Amino-5-methylthio-4-{2-[5-(N-methyl-1-phenyl-1,3-propyl)phosphoramido]furanyl}thiazole]
- levels of 2-Amino-5-methylthio-4-[2-(5 phosphono)furanyl]thiazole formed [6]: 20.5 ± 3 nmol/g

Compound: Nc1ncnc2c1ncn2[C@@H]1O[C@H](COP2(=O)NC(c3ccccc3)CCO2)[C@@H](O)[C@@H]1O (stereo partly drawn) [Compound 3.1, 5′-O-(2-oxo-4-Phenyl-1,3,2-oxazaphosphorin-2-yl)-9-β-D-arabinofuranosyl-adenine]
- Intracellular concentration of nucleoside triphosphate (AraATP from 3.1, acyclovir-triphosphate from 3.2) [7]: 15.7 ± 16 nmol/g

Compound: CC(=O)N1CCN(c2ccc(OCC3COC(Cn4ccnc4)(c4ccc(Cl)cc4Cl)O3)cc2)CC1 (centres unmarked) [Ketoconazole]
- inhibition of formation of MPO2—(NHR^6−) from prodrug [8]: inhibits the formation of MPO2—(NHR^6−) in a dose-dependent fashion

Compound: C=CC(=O)c1ccccc1 [Phenyl vinyl ketone]
- teratogenic activity [9]: lacks teratogenic activity

Compound: Cc1nc2c([nH]1)c(=O)n(C)c(=O)n2Cc1ccco1 [furafylline]
- inhibition of formation of MPO2—(NHR^6−) from prodrug [8]: no significant inhibition

Compound: Nc1ccc(S(=O)(=O)Nc2ccnn2-c2ccccc2)cc1 [sulfaphenazole]
- inhibition of formation of MPO2—(NHR^6−) from prodrug [8]: no significant inhibition
